For 7 compounds, IC50 results are on record in US8623893B2, “Pyridino-pyridinone derivatives, preparation and therapeutic use thereof” (SANOFI, priority 2009, dated 2014).

Structures are written as SMILES.

The target of assay [1] is T1, Flt-3 receptor (constitutively active mutant Flt3ITD, MV4-11 cell line) (Homo sapiens, UniProt P36888, INS600HVDFREYEYD).
T1 construct: bearing a constitutively active mutant Flt3ITD; endogenous in cells; host or cells: MV4-11
T1 sequence (P36888 with tags, fused parts or gaps INS600HVDFREYEYD): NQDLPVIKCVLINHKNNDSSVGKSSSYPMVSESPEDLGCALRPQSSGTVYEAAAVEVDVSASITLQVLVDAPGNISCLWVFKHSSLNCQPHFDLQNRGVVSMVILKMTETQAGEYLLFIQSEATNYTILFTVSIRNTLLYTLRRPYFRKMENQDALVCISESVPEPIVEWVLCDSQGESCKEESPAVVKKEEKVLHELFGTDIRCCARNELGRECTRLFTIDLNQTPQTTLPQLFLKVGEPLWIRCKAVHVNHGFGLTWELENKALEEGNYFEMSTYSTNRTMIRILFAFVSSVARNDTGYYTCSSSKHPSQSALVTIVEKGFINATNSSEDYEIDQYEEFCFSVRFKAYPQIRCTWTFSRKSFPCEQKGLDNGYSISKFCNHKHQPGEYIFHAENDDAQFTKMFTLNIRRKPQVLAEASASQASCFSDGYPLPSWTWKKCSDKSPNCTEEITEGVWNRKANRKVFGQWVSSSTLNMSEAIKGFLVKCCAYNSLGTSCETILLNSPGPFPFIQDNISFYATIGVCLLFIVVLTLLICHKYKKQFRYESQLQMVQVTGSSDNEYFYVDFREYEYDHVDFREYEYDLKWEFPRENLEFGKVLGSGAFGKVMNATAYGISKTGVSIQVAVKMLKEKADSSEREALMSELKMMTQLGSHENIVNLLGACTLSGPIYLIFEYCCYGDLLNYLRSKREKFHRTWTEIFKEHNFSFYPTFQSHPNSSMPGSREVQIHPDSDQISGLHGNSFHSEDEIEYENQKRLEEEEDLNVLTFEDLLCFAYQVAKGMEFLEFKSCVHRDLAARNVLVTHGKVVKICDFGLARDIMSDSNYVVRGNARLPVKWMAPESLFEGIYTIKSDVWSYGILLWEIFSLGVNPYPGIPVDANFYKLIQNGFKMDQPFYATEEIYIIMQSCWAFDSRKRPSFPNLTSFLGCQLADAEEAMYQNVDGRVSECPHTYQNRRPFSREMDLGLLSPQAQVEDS
Nature of the assay: Inhibition of proliferation of MV4-11 cells (tyrosine kinase activity of Flt-3 receptor), CellTiter-Glo, 72 h. Type of assay: cell-based. The conditions noted are these: 72 h incubation, cellular ATP, read-out: IC50 (concentration that inhibits 50% of the proliferation of the MV4-11 cells). Here is the method:
(§1) The inhibitory activity with respect to PDGF or Flt-3 receptors is given by the concentration that inhibits 50% of the proliferation activity of cells Baf3 tel/PDGF or MV4-11, respectively.
Measurement of Inhibition of the Tyrosine Kinase Activity of the Flt-3 Receptor
The inhibitory effect of the compounds according to the invention on the tyrosine kinase activity of the Flt-3 receptor was evaluated on the MV4-11 cell line, a line established from a leukaemia of the AML type and bearing a constitutively active mutant Flt3ITD. The inhibitory activity is correlated with inhibition of cell growth, according to the protocols described by SPIEKERMANN, K. et al., Blood, 2003, 101, (4) 1494-1504 and O'FARRELL, A.-M. et al., Blood, 2003, 101, (9) 3597-3605.
(§2) The MV4-11 cells are washed with PBS buffer and seeded in 96-well plates, at a density of 1.10^5 cells/ml (100 μl per well), in RPMI 1640 containing 10% of FCS, in the presence or absence of the test compounds. After incubation for 72 h, viable cells are quantified by measurement of cellular ATP using the CellTiter-Glo® kit (Promega, Cat G7571). The cells are treated according to the instructions given by the supplier of the kit and the luminescence is measured using a Luminoskan (Ascent, Labsystem) with the following parameters: measurement: single; integration time: 1000 ms, lag time: 5 s.
The inhibitory activity with respect to the Flt-3 receptor is given by the concentration that inhibits 50% of the proliferation of the MV4-11 cells.

For assay [2], the target named is T2, fusion protein Tel/PDGF-R beta (PDGF beta receptor) in BaF/3 cells (Homo sapiens, UniProt P09619).
T2 construct: the transmembrane and intracellular part of the PDGF-R beta receptor; expressed in transfected cells; host or cells: murine haematopoietic cell line BaF/3; the other entry of the earlier key: ETV6 (P41212, Transcription factor ETV6)
T2 sequence (P09619 with tags, fused parts or gaps): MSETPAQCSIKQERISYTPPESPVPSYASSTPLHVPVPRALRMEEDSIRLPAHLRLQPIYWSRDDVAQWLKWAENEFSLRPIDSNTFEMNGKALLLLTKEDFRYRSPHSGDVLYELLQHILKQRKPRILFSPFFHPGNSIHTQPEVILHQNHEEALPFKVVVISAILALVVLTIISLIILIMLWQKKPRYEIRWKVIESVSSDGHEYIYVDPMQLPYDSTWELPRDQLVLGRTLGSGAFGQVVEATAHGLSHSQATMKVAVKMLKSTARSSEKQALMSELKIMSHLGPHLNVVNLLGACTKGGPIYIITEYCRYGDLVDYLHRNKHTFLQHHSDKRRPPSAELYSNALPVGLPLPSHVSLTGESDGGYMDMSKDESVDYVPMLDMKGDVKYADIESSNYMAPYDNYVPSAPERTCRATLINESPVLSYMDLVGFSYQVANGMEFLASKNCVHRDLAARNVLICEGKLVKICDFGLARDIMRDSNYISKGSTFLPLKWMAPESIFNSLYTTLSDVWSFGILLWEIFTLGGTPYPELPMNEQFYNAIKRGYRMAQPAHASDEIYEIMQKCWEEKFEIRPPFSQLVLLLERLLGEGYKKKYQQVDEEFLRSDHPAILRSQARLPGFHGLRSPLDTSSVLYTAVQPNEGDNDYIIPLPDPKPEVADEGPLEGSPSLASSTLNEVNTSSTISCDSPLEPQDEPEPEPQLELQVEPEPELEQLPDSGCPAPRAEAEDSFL
Briefly: Inhibition of proliferation of BaF3 Tel/PDGF cells (tyrosine kinase activity of PDGF-R beta), CellTiter-Glo, 72 h. It counts as cell-based, murine. The conditions noted are these: 72 h incubation, cellular ATP, read-out: IC50 (concentration that inhibits 50% of the proliferation of Baf3 tel/PDGF cells).
Excerpt: as §1
Measurement of Inhibition of the Tyrosine Kinase Activity of the Receptor to PDGF Beta (PDGF-Rβ) (Baf-3 tel/PDGFRβ):
This test consists of evaluating the effects of the compounds on the tyrosine kinase activity of the PDGF beta receptor.
The inhibitory effect of the compounds according to the invention on the tyrosine kinase activity of the PDGF-R receptor was evaluated on the murine haematopoietic cell line BaF/3 transfected with a plasmid coding for the fusion protein Tel/PDGF-R beta. This fusion protein is found in chronic myeloid myelomonocytic leukaemias (CMML). It comprises the N-terminal part of the transcription factor Tel and the transmembrane and intracellular part of the PDGF-R beta receptor. This fusion protein is present in dimerized form (presence of an oligomerization domain in the N-terminal part of Tel) and accordingly leads to the constitutive activity of the kinase domain of PDGF-R beta.
as §2, with “The BaF3 Tel/PDGF” for “The MV4-11”, “with phosphate” for “with PBS”, “of 5.10^4” for “of 1.10^5”, “([…]” for “(100 μl”, “h, the” for “h,”, “measured with” for “measured using”
It thus appears that the compounds according to the invention have an inhibitory activity on the tyrosine kinase activity of PDGF-R beta. This activity is given by the concentration that inhibits 50% of the proliferation of Baf3 tel/PDGF cells (IC50).
In general terms: ATP-based viability assays read luminescence as a measure of living cells.

Turning to `CCn1c(N)c(-c2ncc[nH]2)c(=O)c2ccc(-c3ccc(CC(=O)Nc4ncc(C)s4)cc3)nc21` [Compound 8, 2-{4-[7-Amino-8-ethyl-6-(1H-imidazol-2-yl)-5-oxo-5,8-dihydro-[1,8]naphthyridin-2-yl]-phenyl}-N-(5-methyl-thiazol-2-yl)-acetamide], the IC50 was 52 nM in assay [1] and 2 nM in assay [2]. The matching figures for `CCn1c(N)c(-c2ncc[nH]2)c(=O)c2ccc(-c3ccc(CC(=O)Nc4nnc(C5CC5)s4)cc3)nc21` [Compound 20, 2-{4-[7-Amino-8-ethyl-6-(1H-imidazol-2-yl)-5-oxo-5,8-dihydro-[1,8]naphthyridin-2-yl]-phenyl}-N-(5-cyclopropyl-[1,3,4]thiadiazol-2-yl)-acetamide]: 26 nM and 8 nM. The corresponding values for `CCn1c(N)c(-c2ncc[nH]2)c(=O)c2ccc(-c3ccc(CC(=O)Nc4onc(C)c4C)cc3)nc21` [Compound 27, 2-{4-[7-Amino-8-ethyl-6-(1H-imidazol-2-yl)-5-oxo-5,8-dihydro-[1,8]naphthyridin-2-yl]-phenyl}-N-(3,4-dimethyl-isoxazol-5-yl)-acetamide] are 30 nM and 2 nM. `CCn1c(N)c(-c2ncc[nH]2)c(=O)c2ccc(-c3ccc(CC(=O)Nc4ncccc4C)cc3)nc21` [Compound 32, 2-{4-[7-Amino-8-ethyl-6-(1H-imidazol-2-yl)-5-oxo-5,8-dihydro-[1,8]naphthyridin-2-yl]-phenyl}-N-(3-methyl-pyridin-2-yl)-acetamide]: in assay [1], the IC50 was found to be 69 nM.

Regarding `CCn1c(N)c(-c2ncc[nH]2)c(=O)c2ccc(-c3ccc(CC(=O)Nc4cnccc4C)cc3)nc21` [Compound 42, 2-{4-[7-Amino-8-ethyl-6-(1H-imidazol-2-yl)-5-oxo-5,8-dihydro-[1,8]naphthyridin-2-yl]-phenyl}-N-(4-methyl-pyridin-3-yl)-acetamide], the IC50 in assay [1] amounted to 84 nM. Consider `CCc1ccnc(NC(=O)Cc2ccc(-c3ccc4c(=O)c(-c5ncc[nH]5)c(N)n(CC)c4n3)cc2)c1` [Compound 43, 2-{4-[7-Amino-8-ethyl-6-(1H-imidazol-2-yl)-5-oxo-5,8-dihydro-[1,8]naphthyridin-2-yl]-phenyl}-N-(4-ethyl-pyridin-2-yl)-acetamide], for which the IC50 in assay [1] was 19 nM; in assay [2] it was 1.4 nM. The matching figures for `CCn1c(N)c(-c2nc(C)c[nH]2)c(=O)c2ccc(-c3ccc(CC(=O)NCc4ccncc4)cc3)nc21` [Compound 50, 2-{4-[7-Amino-8-ethyl-6-(4-methyl-1H-imidazol-2-yl)-5-oxo-5,8-dihydro-[1,8]naphthyridin-2-yl]-phenyl}-N-pyridin-4-ylmethyl-acetamide]: 115 nM and 6.6 nM.
